This assay addresses human IRAK4 (Homo sapiens (Human), UniProt Q9NWZ3). Description: IRAK4 kinase inhibition, Transcreener fluorescence polarization (ADP detection). Format: biochemical. To be noted: recombinant full-length His6-IRAK4 1.25 nM; 125 μM ATP; 125 μM peptide; 90 min; Ki computed using ATP Km 642 μM. Here is the method:
Compounds were assayed for inhibition of human IRAK4 and IRAK1 catalytic activity using recombinant enzyme produced from insect cells. Full-length IRAK4 protein, carrying an N-terminal His6-Tag, was obtained from Life Technologies (Carlsbad, Calif., USA). The IRAK1 construct was produced internally and was comprised of IRAK1 residues Arg194 to Ser712, preceded by an NH2-terminal His6 tag and the coding sequence for glutathione-S-transferase.
Kinase activities were assayed using the Transcreener-Fluorecescence polarization platform (BelBrook Labs, Madison, Wis., USA) that measures amounts of the reaction product, ADP.
384 well assay plates spotted with compound received 4 μl of a 2× substrate (ATP+peptide) mix in reaction buffer, followed by 4 μl of 2× enzyme diluted in reaction buffer.
For orientation: Polarisation of emitted light reports the rotation of a fluorescent probe.
Sequence of human IRAK4 (Q9NWZ3 whole entry, the tested form may be a part): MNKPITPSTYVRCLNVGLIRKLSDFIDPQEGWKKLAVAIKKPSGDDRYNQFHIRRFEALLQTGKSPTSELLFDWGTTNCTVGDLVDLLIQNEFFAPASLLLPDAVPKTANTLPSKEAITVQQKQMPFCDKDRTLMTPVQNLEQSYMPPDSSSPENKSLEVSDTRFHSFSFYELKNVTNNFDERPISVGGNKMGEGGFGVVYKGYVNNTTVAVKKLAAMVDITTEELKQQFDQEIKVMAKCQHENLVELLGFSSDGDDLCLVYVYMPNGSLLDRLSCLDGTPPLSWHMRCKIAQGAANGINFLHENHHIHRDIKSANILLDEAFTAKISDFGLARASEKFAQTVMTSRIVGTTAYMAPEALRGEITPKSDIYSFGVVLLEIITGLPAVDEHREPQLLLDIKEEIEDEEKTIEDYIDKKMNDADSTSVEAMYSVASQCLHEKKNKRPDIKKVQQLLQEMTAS
Usually Ki stands for a dissociation constant, usually derived from enzyme kinetics or from competition with a known ligand. On to `C[C@@H]1COCCN1c1nc(C(=O)Nc2cc3c(cc2N2CCOCC2)C(=O)N(C[C@@H](F)C(C)(C)O)C3)co1` (racemic) [Example 16, N-(2-((R)-2-fluoro-3-hydroxy-3-methylbutyl)-6-morpholino-1-oxoisoindolin-5-yl)-2-((R)-20-methyl-morpholino) oxazole-4-carboxamide], for which the Ki is 7 nM.
On to `C[C@@H](O)c1cccc(C(=O)Nc2cc3c(cc2N2CCOCC2)C(=O)N(C[C@@H](F)C(C)(C)O)C3)n1` (racemic) [Example 21, N-[6-morpholino-1-oxo-2-[rac-(2R)-2-fluoro-3-hydroxy-3-methyl-butyl]isoindolin-5-yl]-6-[rac-(1R)-1-hydroxyethyl] pyridine-2-carboxamide], for which the Ki came out at 1.7 nM.
The same measure for `C[C@H](O)c1cccc(C(=O)Nc2cc3c(cc2N2CCOCC2)C(=O)N(C[C@@H](F)C(C)(C)O)C3)n1` (racemic) [Example 22, N-[6-morpholino-1-oxo-2-[rac-(2R)-2-fluoro-3-hydroxy-3-methyl-butyl]isoindolin-5-yl]-6-[rac-(1S)-1-hydroxyethyl] pyridine-2-carboxamide]: 9.2 nM.
The same measure for `CO[C@H](C)c1cccc(C(=O)Nc2cc3c(cc2N2CCOCC2)C(=O)N(C[C@@H](F)C(C)(C)O)C3)n1` (racemic) [Example 23, N-[6-morpholino-1-oxo-2-[rac-(2R)-2-fluoro-3-hydroxy-3-methyl-butyl]isoindolin-5-yl]-6-[rac-(1R)-1-methoxyethyl] pyridine-2-carboxamide]: 12 nM.
The figure for `CO[C@@H](C)c1cccc(C(=O)Nc2cc3c(cc2N2CCOCC2)C(=O)N(C[C@@H](F)C(C)(C)O)C3)n1` (racemic) [Example 24, N-[6-morpholino-1-oxo-2-[rac-(2R)-2-fluoro-3-hydroxy-3-methyl-butyl]isoindolin-5-yl]-6-[rac-(1S)-1-methoxyethyl] pyridine-2-carboxamide] is 33 nM; for `CC(C)(O)[C@H](F)CN1Cc2cc(NC(=O)c3cccc(CC(F)(F)F)n3)c(N3CCOCC3)cc2C1=O` (racemic) [Example 25, N-[6-morpholino-1-oxo-2-[rac-(2R)-2-fluoro-3-hydroxy-3-methyl-butyl]isoindolin-5-yl]-6-(2,2,2-trifluoroethyl)pyridine-2-carboxamide] it is 6.5 nM; for `CC(C)(O)[C@H](F)CN1Cc2cc(NC(=O)c3cnc4cccnn34)c(N3CCOCC3)cc2C1=O` [Example 1, (R)—N-(2-(2-Fluoro-3-hydroxy-3-methylbutyl)-6-morpholino-1-oxoisoindolin-5-yl)imidazo[1,2-b]pyridazine-3-carboxamide] it is 5.1 nM.
Turning to `CC(C)(O)[C@H](F)CN1Cc2cc(NC(=O)c3ccc[nH]c3=O)c(N3CCOCC3)cc2C1=O` [Example 3, (R)-N-(2-(2-Fluoro-3-hydroxy-3-methylbutyl)-6-morpholino-1-oxoisoindolin-5-yl)-2-oxo-1,2-dihydropyridine-3-carboxamide], the Ki is 8.2 nM.
The same measure for `Cn1cccc(C(=O)Nc2cc3c(cc2N2CCOCC2)C(=O)N(C[C@@H](F)C(C)(C)O)C3)c1=O` [Example 4, (R)-N-(2-(2-Fluoro-3-hydroxy-3-methylbutyl)-6-morpholino-1-oxoisoindolin-5-yl)-1-methyl-2-oxo-1,2-dihydropyridine-3-carboxamide]: 8 nM; for `CCn1cccc(C(=O)Nc2cc3c(cc2N2CCOCC2)C(=O)N(C[C@@H](F)C(C)(C)O)C3)c1=O` [Example 5, (R)-1-Ethyl-N-(2-(2-fluoro-3-hydroxy-3-methylbutyl)-6-morpholino-1-oxoisoindolin-5-yl)-2-oxo-1,2-dihydropyridine-3-carboxamide]: 5.6 nM; for `C[C@H]1COCCN1c1nc(C(=O)Nc2cc3c(cc2N2CCOCC2)C(=O)N(C[C@@H](F)C(C)(C)O)C3)co1` [Example 10, N-[2-[(2R)-2-Fluoro-3-hydroxy-3-methyl-butyl]-6-morpholino-1-oxo-isoindolin-5-yl]-2-[(3S)-3-methylmorpholin-4-yl]oxazole-4-carboxamide]: 7.6 nM.
The same measure for `CC(C)Oc1cccc(C(=O)Nc2cc3c(cc2N(C)C)C(=O)N(C[C@@H](F)C(C)(C)O)C3)n1` [Example 11, N-[6-(Dimethylamino)-2-[(2R)-2-fluoro-3-hydroxy-3-methyl-butyl]-1-oxo-isoindolin-5-yl]-6-isopropoxy-pyridine-2-carboxamide]: 21 nM; for `CN(C)c1cc2c(cc1NC(=O)c1cccc(OC3CCNC3)n1)CN(C[C@@H](F)C(C)(C)O)C2=O` (stereo partly drawn) [Example 13, N-[6-(Dimethylamino)-2-[(2R)-2-fluoro-3-hydroxy-3-methyl-butyl]-1-oxo-isoindolin-5-yl]-6-pyrrolidin-3-yloxy-pyridine-2-carboxamide]: 5.8 nM; for `Cc1ccc(-c2cc3c(cc2NC(=O)c2cnc(C)o2)CN(C[C@@H](F)C(C)(C)O)C3=O)nc1` [Example 14, (R)-N-(2-(2-Fluoro-3-hydroxy-3-methylbutyl)-6-(5-methyl-pyridin-2-yl)-1-oxoisoindolin-5-yl)-2-methyloxazole-5-carboxamide]: 4.2 nM.
The figure for `CC(C)(O)[C@H](F)CN1Cc2cc(NC(=O)c3coc(N4CCOCC4)n3)c(N3CCOCC3)cc2C1=O` [Example 15, (R)-N-(2-(2-Fluoro-3-hydroxy-3-methylbutyl)-6-morpholino-1-oxoisoindolin-5-yl)-2-morpholino-oxazole-4-carboxamide] is 4.6 nM.
As for `CC(C)(O)[C@H](F)CN1Cc2cc(NC(=O)c3cccc(C(F)(F)F)n3)c(N3CCOCC3)cc2C1=O` [Example 17, (R)—N-(2-(2-Fluoro-3-hydroxy-3-methylbutyl)-6-morpholino-1-oxoisoindolin-5-yl)-6-(trifluoromethyl)picolinamide], the Ki worked out at 2.5 nM.
For the molecule `COc1cccc(C(=O)Nc2cc3c(cc2N(C)C)C(=O)N(C[C@@H](F)C(C)(C)O)C3)n1` [Example 19, N-[6-(Dimethyl-amino)-2-[(2R)-2-fluoro-3-hydroxy-3-methyl-butyl]-1-oxo-isoindolin-5-yl]-6-methoxy-pyridine-2-carboxamide], the Ki was 1.5 nM.
With `Cn1ccn2ncc(C(=O)Nc3cc4c(cc3N3CCOCC3)C(=O)N(C[C@@H](F)C(C)(C)O)C4)c2c1=O` [Example 26, N-[2-[(2R)-2-Fluoro-3-hydroxy-3-methyl-butyl]-6-morpholino-1-oxo-isoindolin-5-yl]-5-methyl-4-oxo-pyrazolo [1,5-a] pyrazine-3-carboxamide], the Ki amounted to 47 nM.
The figure for `CC(C)(O)[C@H](F)CN1Cc2cc(NC(=O)c3cccc4[nH]cnc34)c(N3CCOCC3)cc2C1=O` [Example 32, N-[2-[(2R)-2-Fluoro-3-hydroxy-3-methyl-butyl]-6-morpholino-1-oxo-isoindolin-5-yl]-1H-benz-imidazole-4-carboxamide] is 1.1 nM; for `Cn1ncc(C(=O)Nc2cc3c(cc2N2CCOCC2)C(=O)N(C[C@@H](F)C(C)(C)O)C3)c1Cl` [Example 33, 5-Chloro-N-[2-[(2R)-2-fluoro-3-hydroxy-3-methyl-butyl]-6-morpholino-1-oxo-isoindolin-5-yl]-1-methyl-pyrazole-4-carboxamide] it is 51 nM.
